Measurements published in US8389557B2, “Triazole derivatives useful as Axl inhibitors” (Rigel Pharmaceuticals, Inc., priority 2005, dated 2013).
pIC50: −log10 of the molar value.

Biological target: T1, Axl (Homo sapiens, UniProt P30530)
T1 construct: endogenous in cells; host or cells: HeLa cells
T1 sequence (P30530 26-894): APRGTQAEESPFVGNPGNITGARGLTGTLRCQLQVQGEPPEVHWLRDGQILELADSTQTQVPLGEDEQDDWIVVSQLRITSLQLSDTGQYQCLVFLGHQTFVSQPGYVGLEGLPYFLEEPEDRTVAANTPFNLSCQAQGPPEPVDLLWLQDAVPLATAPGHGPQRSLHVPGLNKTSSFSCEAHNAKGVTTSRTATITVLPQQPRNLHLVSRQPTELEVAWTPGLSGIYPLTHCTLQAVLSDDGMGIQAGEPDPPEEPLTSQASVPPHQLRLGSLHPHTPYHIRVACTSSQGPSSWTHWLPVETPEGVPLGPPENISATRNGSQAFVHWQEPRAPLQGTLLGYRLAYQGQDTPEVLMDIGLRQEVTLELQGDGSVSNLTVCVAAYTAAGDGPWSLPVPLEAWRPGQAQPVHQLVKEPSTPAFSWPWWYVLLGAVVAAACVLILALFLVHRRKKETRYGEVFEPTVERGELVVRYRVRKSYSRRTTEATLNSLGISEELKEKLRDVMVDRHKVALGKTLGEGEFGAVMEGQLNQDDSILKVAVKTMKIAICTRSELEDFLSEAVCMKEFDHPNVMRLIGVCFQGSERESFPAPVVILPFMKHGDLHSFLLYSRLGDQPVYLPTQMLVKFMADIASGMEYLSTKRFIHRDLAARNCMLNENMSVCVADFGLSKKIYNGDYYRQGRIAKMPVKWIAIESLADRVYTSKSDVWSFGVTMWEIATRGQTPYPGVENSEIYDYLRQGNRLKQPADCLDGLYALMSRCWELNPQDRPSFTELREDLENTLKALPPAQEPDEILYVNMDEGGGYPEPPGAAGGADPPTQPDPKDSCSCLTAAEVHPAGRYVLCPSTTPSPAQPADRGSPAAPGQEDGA
Assay: Phospho-Akt in-cell Western assay (inhibition of Axl activity)
Assay type: cell-based
Outline: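 HeLa cells on poly-L-lysine, starved 24 h in 0.5% FCS DMEM with Axl/Fc 500 ng/mL, pre-treated with compound 1 h at 37° C. Axl stimulated 5 min by anti-Axl/anti-mouse antibody cross-linking. Fixed cells probed with anti-phospho-Akt and HRP secondary, chemiluminescence read.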

[1] = Table 3, Hela cells, Axl antibody cross-linking stimulation, phospho-Akt chemiluminescence
[2] = Table 4, Hela cells, Axl antibody cross-linking stimulation, phospho-Akt chemiluminescence
[3] = inhibition of Axl activity, phospho-Akt in-cell Western assay, Table 1

Structure (SMILES) | pIC50 [1] | pIC50 [3] | further results
CN1CCN(c2ccc(Nc3nc(N)nn3C(=O)c3cccc(N(C)C)c3)cc2)CC1 [compound 364, 3-amino-1-(3-(dimethylamino)phenyl)carbonyl-5-(4-(4-methylpiperazin-1-yl)phenylamino]-1H-1,2,4-triazole] | – | – | pIC50 (Table 2, Hela cells, Axl antibody cross-linking stimulation, phospho-Akt chemiluminescence): 5.00 to 6.00
CN1CCN(c2ccc(Nc3nc(N)n(C(=O)C4CC5CCC4C5)n3)cc2)CC1 (centres unmarked) [compound 365, 5-amino-1-(bicyclo[2.2.1]heptan-2-yl)carbonyl-3-[4-(4-methylpiperazin-1-yl)phenylamino]-1H-1,2,4-triazole] | < 4.70 | – | –
Nc1nc(Nc2ccc(OCCN3CCCC3)cc2)n(C(=O)c2cc3ccccc3s2)n1 [compound 368, 3-amino-1-(benzo[b]thiophen-2-yl)carbonyl-5-[4-[2-(pyrrolidin-1-yl)ethoxy]phenylamino]-1H-1,2,4-triazole] | – | – | pIC50 [2]: 5.00 to 6.00
CC(C)(C)Oc1ccc(C(=O)n2nc(Nc3ccc(OCCn4ccnc4)cc3)nc2N)cc1 [compound 370, 5-amino-1-(4-(tert-butoxy)phenyl)carbonyl-3-[4-[2-(imidazol-1-yl)ethoxy]phenylamino]-1H-1,2,4-triazole] | – | > 6.00 | –
CC(C)(C)Oc1cccc(C(=O)n2nc(Nc3ccc(OCCn4ccnc4)cc3)nc2N)c1 [compound 371, 5-amino-1-(3-(tert-butoxy)phenyl)carbonyl-3-[4-[2-(imidazol-1-yl)ethoxy]phenylamino]-1H-1,2,4-triazole] | – | 5.00 to 6.00 | –
CC(C)Oc1ccc(C(=O)n2nc(Nc3ccc(OCCn4ccnc4)cc3)nc2N)cc1 [compound 372, 5-amino-1-(4-(iso-propoxy)phenyl)carbonyl-3-[4-[2-(imidazol-1-yl)ethoxy]phenylamino]-1H-1,2,4-triazole] | – | > 6.00 | –
CN(C)c1ccc(C(=O)n2nc(Nc3ccc(OCCn4ccnc4)cc3)nc2N)cc1 [compound 373, 5-amino-1-(4-(dimethylamino)phenyl)carbonyl-3-[4-[2-(imidazol-1-yl)ethoxy]phenylamino]-1H-1,2,4-triazole] | – | > 6.00 | –
CN(C)c1cccc(C(=O)n2nc(Nc3ccc(OCCn4ccnc4)cc3)nc2N)c1 [compound 374, 5-amino-1-(3-(dimethylamino)phenyl)carbonyl-3-[4-[2-(imidazol-1-yl)ethoxy]phenylamino]-1H-1,2,4-triazole] | – | 5.00 to 6.00 | –
Nc1nc(Nc2ccc(OCCn3ccnc3)cc2)nn1C(=O)c1ccc2cc[nH]c2c1 [compound 375, 5-amino-1-(1H-indol-6-yl)carbonyl-3-[4-[2-(imidazol-1-yl)ethoxy]phenylamino]-1H-1,2,4-triazole] | > 6.00 | – | –
Nc1nc(Nc2ccc(OCCn3ccnc3)cc2)n(C(=O)c2ccc3cc[nH]c3c2)n1 [compound 376, 3-amino-1-(1H-indol-6-yl)carbonyl-5-[4-[2-(imidazol-1-yl)ethoxy]phenylamino]-1H-1,2,4-triazole] | – | – | pIC50 [2]: > 6.00

Further lines, with some results ahead:

pIC50 [1] | pIC50 [3] | Structure (SMILES) | further results
5.00 to 6.00 | – | Nc1nc(Nc2ccc(OCCN3CCCC3)cc2)nn1C(=O)c1c[nH]c2ccccc12 [compound 366, 5-amino-1-(1H-indol-3-yl)carbonyl-3-[4-[2-(pyrrolidin-1-yl)ethoxy]phenylamino]-1H-1,2,4-triazole] | –
> 6.00 | – | Nc1nc(Nc2ccc(OCCN3CCCC3)cc2)nn1C(=O)c1cc2ccccc2s1 [compound 367, 5-amino-1-(benzo[b]thiophen-2-yl)carbonyl-3-[4-[2-(pyrrolidin-1-yl)ethoxy]phenylamino]-1H-1,2,4-triazole] | –
> 6.00 | – | Nc1nc(Nc2ccc(OCCN3CCCC3)cc2)nn1C(=O)c1ccc2sccc2c1 [compound 369, 5-amino-1-(benzo[b]thiophen-5-yl)carbonyl-3-[4-[2-(pyrrolidin-1-yl)ethoxy]phenylamino]-1H-1,2,4-triazole] | –
> 6.00 | – | Nc1nc(Nc2ccc(OCCn3ccnc3)cc2)nn1C(=O)c1ccc2sccc2c1 [compound 377, 5-amino-1-(benzo[b]thiophen-5-yl)carbonyl-3-[4-[2-(imidazol-1-yl)ethoxy]phenylamino]-1H-1,2,4-triazole] | –
